Measurements: patent US20260125346A1, “Isoquinolinone Derivatives and 4H-Quinolizinone Derivatives and Pharmaceutical Compositions Thereof for the Treatment of Disease” (BeOne Medicines I GmbH, priority 2023, published 2026)

Columns and labels:
[1] = molecular target: PI3Kα (p110/p85) kinase (wild type, "WT") (Homo sapiens, UniProt P42336); assay: PI3Kα (p110/p85) kinase ADP-Glo Assay; format: biochemical; settings: 25 uM ATP
In short: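 IC50 values come from a four-parameter logistic fit of ADP-Glo chemiluminescence, reflecting ADP formed. Enzyme, lipid substrate and […] compound were preincubated 30 min at room temperature, then 25 µM ATP was added for a 120 min reaction in 50 mM HEPES pH7.5, 3 mM MgCl2.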

[2] = molecular target: PI3Kα (p110[H1047R]/p85) kinase (Homo sapiens, UniProt P42336, H1047R); assay: PI3Kα (p110[H1047R]/p85) kinase ADP-Glo Assay; format: biochemical; settings: 25 uM ATP; for selectivity: WT/H1047R: ADP-Glo Assay IC50 ratio
In short: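 ADP-Glo luminescence tracked ADP formed by the mutant p110α(H1047R)/p85 complex during a 120 min room-temperature reaction with 25 µM ATP and 5.35 µg/ml PI(4,5)P2:PS lipid substrate, started after 30 min enzyme–compound–substrate pre-incubation (compound […], 50 mM HEPES pH 7.5). IC50 via four-parameter logistic equation.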

[3] = tested on: PI3Kα H1047R mutated cell line T-47D; assay: Phospho-AKT (Ser473) Inhibition Assay (HTRF), T-47D; format: cell-based; settings: for IC50: Homo sapiens, T47D, T-47D, 1 hour treatment, read-out: p-AKT Inhibition assay (S473) IC50 T-47D; for Selectivity: SK-BR-3/T-47D (p-AKT): p-AKT (S473) IC50 ratio
In short: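 Cells seeded overnight in insulin-supplemented MEM, then treated 1 h with 11-point 1:3 compound dilutions (10 μM to 0.1 nM final, 0.1% DMSO). Lysates assayed for phospho-AKT Ser473 by HTRF; IC50 from 4-parameter logistic fit, normalised to DMSO (max) and 10 μM GDC0077 (min).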

PI3Kα (p110[H1047R]/p85) kinase, sequence (P42336 whole entry H1047R): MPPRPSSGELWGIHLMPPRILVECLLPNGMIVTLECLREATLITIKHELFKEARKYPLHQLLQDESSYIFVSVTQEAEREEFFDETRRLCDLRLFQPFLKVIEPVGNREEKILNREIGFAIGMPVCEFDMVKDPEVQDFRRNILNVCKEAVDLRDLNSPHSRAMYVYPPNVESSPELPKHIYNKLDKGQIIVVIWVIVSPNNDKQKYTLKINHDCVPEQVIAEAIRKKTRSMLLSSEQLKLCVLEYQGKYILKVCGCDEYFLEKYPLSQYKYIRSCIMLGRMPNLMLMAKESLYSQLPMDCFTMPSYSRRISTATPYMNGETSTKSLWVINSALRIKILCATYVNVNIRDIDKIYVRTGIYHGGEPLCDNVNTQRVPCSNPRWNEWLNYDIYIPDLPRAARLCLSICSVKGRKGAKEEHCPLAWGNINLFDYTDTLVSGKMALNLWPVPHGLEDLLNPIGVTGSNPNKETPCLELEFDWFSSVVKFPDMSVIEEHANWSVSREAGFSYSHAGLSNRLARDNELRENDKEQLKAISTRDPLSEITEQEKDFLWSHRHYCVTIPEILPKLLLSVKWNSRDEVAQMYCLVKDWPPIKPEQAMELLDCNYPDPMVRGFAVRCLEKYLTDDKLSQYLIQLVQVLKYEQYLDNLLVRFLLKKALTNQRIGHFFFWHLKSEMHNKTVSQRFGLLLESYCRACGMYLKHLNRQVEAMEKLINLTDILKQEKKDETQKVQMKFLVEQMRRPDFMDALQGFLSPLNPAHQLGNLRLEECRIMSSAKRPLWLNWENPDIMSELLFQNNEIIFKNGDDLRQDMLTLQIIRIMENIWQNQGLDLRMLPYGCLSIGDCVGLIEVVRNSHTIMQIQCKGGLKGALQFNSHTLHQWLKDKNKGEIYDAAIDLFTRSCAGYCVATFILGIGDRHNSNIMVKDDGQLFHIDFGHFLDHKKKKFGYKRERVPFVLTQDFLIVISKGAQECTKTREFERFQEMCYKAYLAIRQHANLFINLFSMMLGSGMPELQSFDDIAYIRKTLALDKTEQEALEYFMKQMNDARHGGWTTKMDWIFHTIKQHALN
PI3Kα (p110[H1047R]/p85) kinase, sequence (P27986 whole entry partner): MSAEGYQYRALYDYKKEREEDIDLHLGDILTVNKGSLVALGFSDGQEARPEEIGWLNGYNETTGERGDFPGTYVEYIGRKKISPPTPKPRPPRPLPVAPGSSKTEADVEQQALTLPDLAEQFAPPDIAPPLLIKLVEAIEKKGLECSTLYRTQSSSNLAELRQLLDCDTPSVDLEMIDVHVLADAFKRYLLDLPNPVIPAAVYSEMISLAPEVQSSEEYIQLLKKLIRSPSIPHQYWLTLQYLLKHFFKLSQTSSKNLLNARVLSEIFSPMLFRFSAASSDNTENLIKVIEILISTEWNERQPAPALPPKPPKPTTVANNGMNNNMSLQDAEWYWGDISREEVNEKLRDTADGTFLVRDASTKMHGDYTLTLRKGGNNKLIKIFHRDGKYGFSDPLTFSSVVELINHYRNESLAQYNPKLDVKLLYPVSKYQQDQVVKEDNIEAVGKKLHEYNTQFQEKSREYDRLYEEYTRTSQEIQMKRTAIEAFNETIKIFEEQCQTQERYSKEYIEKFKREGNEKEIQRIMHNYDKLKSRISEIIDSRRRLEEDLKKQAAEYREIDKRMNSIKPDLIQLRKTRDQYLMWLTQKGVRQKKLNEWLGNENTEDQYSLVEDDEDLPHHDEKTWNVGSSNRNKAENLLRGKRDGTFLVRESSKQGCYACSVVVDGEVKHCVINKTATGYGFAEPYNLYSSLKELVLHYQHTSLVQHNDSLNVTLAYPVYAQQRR
PI3Kα (p110/p85) kinase (wild type, "WT"), sequence (P42336 whole entry): as the sequence (P42336 whole entry H1047R) above, with R1047H counted along it
PI3Kα (p110/p85) kinase (wild type, "WT"), sequence (P27986 whole entry partner): as the sequence (P27986 whole entry partner) above

Row | Compound | IC50 [1] | IC50 [2] | selectivity: WT/H1047R [2] | IC50 [3] | Selectivity: SK-BR-3/T-47D (p-AKT) [3]
1 | COc1ncc(-c2cc3c([C@@H](C)Nc4ccccc4C(=O)O)cc(C)cc3c(=O)n2C)cc1F [Example 59, (R)-2-((1-(3-(5-fluoro-6-methoxypyridin-3-yl)-2,7-dimethyl-1-oxo-1,2-dihydroisoquinolin-5-yl)ethyl)amino)benzoic acid] | 4310 nM | 281 nM | 15.3 | 81.5 nM | >123
2 | CC(Nc1ccccc1C(=O)O)c1cccn2c(=O)cc(-c3ccccc3)cc12 (stereo not drawn) [Example 25, 2-((1-(4-oxo-2-phenyl-4H-quinolizin-9-yl)ethyl)amino)benzoic acid] | 23800 nM | 229 nM | 104.0 | 299 nM | >33.4
3 | Cc1cc(C(C)Nc2ccccc2C(=O)O)c2cc(C#Cc3ccccc3)n(C)c(=O)c2c1 (stereo not drawn) [Example 43, 2-((1-(2,7-dimethyl-1-oxo-3-(phenylethynyl)-1,2-dihydroisoquinolin-5-yl)ethyl)amino)benzoic acid] | 2360 nM | 235 nM | 10.1 | 408 nM | 4.0
4 | Cc1cc(C(C)Nc2ccccc2C(=O)O)c2cc(-c3ccn(-c4ccccc4)c3)n(C)c(=O)c2c1 (stereo not drawn) [Example 77, 2-((1-(2,7-dimethyl-1-oxo-3-(1-phenyl-1H-pyrrol-3-yl)-1,2-dihydroisoquinolin-5-yl)ethyl)amino)benzoic acid] | 6950 nM | 325 nM | 21.4 | 84.3 nM | 24.2
5 | Cc1cc(C(C)Nc2ccccc2C(=O)O)c2cc(C3=CCN(c4ccccc4)CC3)n(C)c(=O)c2c1 (stereo not drawn) [Example 46, 2-((1-(2,7-dimethyl-1-oxo-3-(1-phenyl-1,2,3,6-tetrahydropyridin-4-yl)-1,2-dihydroisoquinolin-5-yl)ethyl)amino)benzoic acid] | 11100 nM | 480 nM | 23.0 | 92.4 nM | 54.8
6 | Cc1cc(C(C)Nc2ccccc2C(=O)O)c2cc(-c3cccc4cn(C)nc34)n(C)c(=O)c2c1 (stereo not drawn) [Example 22, 2-((1-(2,7-dimethyl-3-(2-methyl-2H-indazol-7-yl)-1-oxo-1,2-dihydroisoquinolin-5-yl)ethyl)amino)benzoic acid] | 52300 nM | 1730 nM | 30.3 | 1750 nM | >5.7
7 | CC(Nc1ccccc1C(=O)O)c1cccc2c(=O)n(C)c(-c3ccccc3)cc12 (stereo not drawn) [Example 20, 2-((1-(2-methyl-1-oxo-3-phenyl-1,2-dihydroisoquinolin-5-yl)ethyl)amino)benzoic acid] | 10100 nM | 93 nM | 108.4 | 24.1 nM | >416
8 | Cc1cc([C@@H](C)Nc2ccccc2C(=O)O)c2cc(-c3cnc(C(C)(C)O)nc3)n(C)c(=O)c2c1 [Example 67, (R)-2-((1-(3-(2-(2-hydroxypropan-2-yl)pyrimidin-5-yl)-2,7-dimethyl-1-oxo-1,2-dihydroisoquinolin-5-yl)ethyl)amino)benzoic acid] | 13600 nM | 1210 nM | 11.2 | 1540 nM | >6.51

Now from value to compound, other results behind:

Row | IC50 [1] | IC50 [2] | selectivity: WT/H1047R [2] | IC50 [3] | Compound | Selectivity: SK-BR-3/T-47D (p-AKT) [3]
9 | 2030 nM | 223 nM | 9.1 | 103 nM | Cc1cc(C(C)Nc2ccccc2C(=O)O)c2cc(-c3ccc(-c4cnn(C)c4)cc3)n(C)c(=O)c2c1 (stereo not drawn) [Example 23, 2-((1-(2,7-dimethyl-3-(4-(1-methyl-1H-pyrazol-4-yl)phenyl)-1-oxo-1,2-dihydroisoquinolin-5-yl)ethyl)amino)benzoic acid] | 16.6
10 | 6860 nM | 858 nM | 8.0 | 217 nM | COc1ccc(-c2cc3c(C(C)Nc4ccccc4C(=O)O)cc(C)cc3c(=O)n2C)cn1 (stereo not drawn) [Example 15, 2-((1-(3-(6-methoxypyridin-3-yl)-2,7-dimethyl-1-oxo-1,2-dihydroisoquinolin-5-yl)ethyl)amino)benzoic acid] | 38.5
11 | 2520 nM | 164 nM | 15.3 | 53.9 nM | Cc1cc(C(C)Nc2ccccc2C(=O)O)c2cc(-c3cccc(F)c3)n(C)c(=O)c2c1 (stereo not drawn) [Example 7, 2-((1-(3-(3-fluorophenyl)-2,7-dimethyl-1-oxo-1,2-dihydroisoquinolin-5-yl)ethyl)amino)benzoic acid] | 34.5
12 | 7210 nM | 273 nM | 26.4 | 63.9 nM | Cc1cc(C(C)Nc2ccccc2C(=O)O)c2cc(C3=Cc4ccccc4CC3)n(C)c(=O)c2c1 (stereo not drawn) [Example 45, 2-((1-(3-(3,4-dihydronaphthalen-2-yl)-2,7-dimethyl-1-oxo-1,2-dihydroisoquinolin-5-yl)ethyl)amino)benzoic acid] | 44.0
13 | 4370 nM | 272 nM | 16.1 | 85.1 nM | Cc1cc(C(C)Nc2ccccc2C(=O)O)c2cc(-c3ccc4nc(C)sc4c3)n(C)c(=O)c2c1 (stereo not drawn) [Example 18, 2-((1-(2,7-dimethyl-3-(2-methylbenzo[d]thiazol-6-yl)-1-oxo-1,2-dihydroisoquinolin-5-yl)ethyl)amino)benzoic acid] | 27.3
14 | 59200 nM | 2420 nM | 24.4 | > 10000 nM | Cc1cc(C(C)Nc2ccccc2C(=O)O)c2cc(-c3ccc(P(C)(C)=O)cc3)n(C)c(=O)c2c1 (stereo not drawn) [Example 79, 2-((1-(3-(4-(dimethylphosphoryl)phenyl)-2,7-dimethyl-1-oxo-1,2-dihydroisoquinolin-5-yl)ethyl)amino)benzoic acid] | 
15 | 9450 nM | 375 nM | 25.2 | 75.6 nM | CC#Cc1ccc(-c2cc3c(C(C)Nc4ccccc4C(=O)O)cc(C)cc3c(=O)n2C)cc1 (stereo not drawn) [Example 52, 2-((1-(2,7-dimethyl-1-oxo-3-(4-(prop-1-yn-1-yl)phenyl)-1,2-dihydroisoquinolin-5-yl)ethyl)amino)benzoic acid] | 95.1
16 | 50800 nM | 603 nM | 84.2 | 467 nM | Cc1cc(C(C)Nc2ccccc2C(=O)O)c2cc(-c3ccccn3)n(C)c(=O)c2c1 (stereo not drawn) [Example 36, 2-((1-(2,7-dimethyl-1-oxo-3-(pyridin-2-yl)-1,2-dihydroisoquinolin-5-yl)ethyl)amino)benzoic acid] | >21
17 | 4840 nM | 261 nM | 18.5 | 44.7 nM | Cc1cc(C(C)Nc2ccccc2C(=O)O)c2cc(-c3ccc4c(c3)C3CC3O4)n(C)c(=O)c2c1 (stereo not drawn) [Example 53, 2-((1-(3-(1a,6b-dihydro-1H-cyclopropa[b]benzofuran-5-yl)-2,7-dimethyl-1-oxo-1,2-dihydroisoquinolin-5-yl)ethyl)amino)benzoic acid] | 56.6
